Data as given in patent US20230157952A1, “METHOD FOR IMPROVING THE STABILITY OF A PHARMACEUTICAL COMPOSITION COMPRISING A HIGH PENETRATION DRUG, AND THE PHARMACEUTICAL COMPOSITION OBTAINED THEREFROM” (Techfields Inc., priority 2020, published 2023).

Assay: Effect of temperature (and pH) on the stability of the solution (purity)
Assay type: physicochemical
Conditions: 7% solution in water

CCN(CC)CCOC(=O)CCc1nc(-c2ccccc2)c(-c2ccccc2)o1.Cl
Purity(%) at day 0 (pH 1.0, day 0): 98.2 ± 0.3% | Purity(%) at day 21 (5° C.) (pH 1.0, day 21, 5° C.): 90.1 ± 0.3% | Purity(%) at day 21 (25° C.) (pH 1.0, day 21, 25° C.): 59.9 ± 0.3% | Purity(%) at day 21 (40° C.) (pH 1.0, day 21, 40° C.): 7.9 ± 0.3% | Purity (%) at day 21 (60° C.) (pH 1.0, day 21, 60° C.): 0% | Purity(%) at day 0 (pH 2.0, day 0): 98.4 ± 0.3% | Purity(%) at day 21 (5° C.) (pH 2.0, day 21, 5° C.): 93.0 ± 0.2% | Purity(%) at day 21 (25° C.) (pH 2.0, day 21, 25° C.): 74.8 ± 0.2% | Purity(%) at day 21 (40° C.) (pH 2.0, day 21, 40° C.): 17.6 ± 0.2% | Purity (%) at day 21 (60° C.) (pH 2.0, day 21, 60° C.): 0% | Purity(%) at day 0 (pH 3.0, day 0): 98.6 ± 0.1% | Purity(%) at day 21 (5° C.) (pH 3.0, day 21, 5° C.): 96.9 ± 0.2% | Purity(%) at day 21 (25° C.) (pH 3.0, day 21, 25° C.): 88.9 ± 0.2% | Purity(%) at day 21 (40° C.) (pH 3.0, day 21, 40° C.): 36.4 ± 0.2% | Purity (%) at day 21 (60° C.) (pH 3.0, day 21, 60° C.): 0% | Purity(%) at day 0 (pH 3.7, day 0): 98.7 ± 0.2% | Purity(%) at day 21 (5° C.) (pH 3.7, day 21, 5° C.): 97.8 ± 0.1% | Purity(%) at day 21 (25° C.) (pH 3.7, day 21, 25° C.): 94.5 ± 0.2% | Purity(%) at day 21 (40° C.) (pH 3.7, day 21, 40° C.): 50.6 ± 0.2% | Purity (%) at day 21 (60° C.) (pH 3.7, day 21, 60° C.): 7.3 ± 0.3% | Purity(%) at day 0 (pH 4.0, day 0): 98.8 ± 0.1% | Purity(%) at day 21 (5° C.) (pH 4.0, day 21, 5° C.): 97.9 ± 0.1% | Purity(%) at day 21 (25° C.) (pH 4.0, day 21, 25° C.): 95.1 ± 0.1% | Purity(%) at day 21 (40° C.) (pH 4.0, day 21, 40° C.): 53.2 ± 0.2% | Purity (%) at day 21 (60° C.) (pH 4.0, day 21, 60° C.): 20.2 ± 0.2% | Purity(%) at day 0 (pH 4.3, day 0): 98.8 ± 0.2% | Purity(%) at day 21 (5° C.) (pH 4.3, day 21, 5° C.): 97.9 ± 0.2% | Purity(%) at day 21 (25° C.) (pH 4.3, day 21, 25° C.): 95.2 ± 0.2% | Purity(%) at day 21 (40° C.) (pH 4.3, day 21, 40° C.): 54.8 ± 0.1% | Purity (%) at day 21 (60° C.) (pH 4.3, day 21, 60° C.): 21.8 ± 0.3% | Purity(%) at day 0 (pH 4.6, day 0): 98.7 ± 0.1% | Purity(%) at day 21 (5° C.) (pH 4.6, day 21, 5° C.): 97.8 ± 0.2% | Purity(%) at day 21 (25° C.) (pH 4.6, day 21, 25° C.): 95.0 ± 0.1% | Purity(%) at day 21 (40° C.) (pH 4.6, day 21, 40° C.): 54.7 ± 0.2% | Purity (%) at day 21 (60° C.) (pH 4.6, day 21, 60° C.): 15.5 ± 0.3% | Purity(%) at day 0 (pH 5.0, day 0): 98.6 ± 0.3% | Purity(%) at day 21 (5° C.) (pH 5.0, day 21, 5° C.): 96.3 ± 0.2% | Purity(%) at day 21 (25° C.) (pH 5.0, day 21, 25° C.): 89.8 ± 0.1% | Purity(%) at day 21 (40° C.) (pH 5.0, day 21, 40° C.): 30.1 ± 0.2% | Purity (%) at day 21 (60° C.) (pH 5.0, day 21, 60° C.): 3.2 ± 0.2% | Purity(%) at day 0 (pH 6.0, day 0): 98.4 ± 0.2% | Purity(%) at day 21 (5° C.) (pH 6.0, day 21, 5° C.): 93.4 ± 0.2% | Purity(%) at day 21 (25° C.) (pH 6.0, day 21, 25° C.): 73.9 ± 0.2% | Purity(%) at day 21 (40° C.) (pH 6.0, day 21, 40° C.): 16.5 ± 0.2% | Purity (%) at day 21 (60° C.) (pH 6.0, day 21, 60° C.): 0% | Purity(%) at day 0 (pH 7.0, day 0): 98.2 ± 0.3% | Purity(%) at day 21 (5° C.) (pH 7.0, day 21, 5° C.): 89.2 ± 0.3% | Purity(%) at day 21 (25° C.) (pH 7.0, day 21, 25° C.): 59.7 ± 0.2% | Purity(%) at day 21 (40° C.) (pH 7.0, day 21, 40° C.): 7.1 ± 0.3% | Purity (%) at day 21 (60° C.) (pH 7.0, day 21, 60° C.): 0% | Purity(%) at day 0 (pH 8.0, day 0): 98.0 ± 0.3% | Purity(%) at day 21 (5° C.) (pH 8.0, day 21, 5° C.): 77.1 ± 0.3% | Purity(%) at day 21 (25° C.) (pH 8.0, day 21, 25° C.): 40.8 ± 0.3% | Purity(%) at day 21 (40° C.) (pH 8.0, day 21, 40° C.): 0% | Purity (%) at day 21 (60° C.) (pH 8.0, day 21, 60° C.): 0%

CCN(CC)CCOC(=O)c1cc(-c2ccc(F)cc2F)ccc1OC(C)=O.Cl
Purity(%) at day 0 (pH 1.0, day 0): 99.1% | Purity(%) at day 14 (5° C.) (pH 1.0, day 14, 5° C.): 90.2% | Purity(%) at day 14 (25° C.) (pH 1.0, day 14, 25° C.): 61.2% | Purity(%) at day 14 (40° C.) (pH 1.0, day 14, 40° C.): 0% | Purity (%) at day 14 (60° C.) (pH 1.0, day 14, 60° C.): 0% | Purity(%) at day 0 (pH 2.0, day 0): 99.1% | Purity(%) at day 14 (5° C.) (pH 2.0, day 14, 5° C.): 95.8% | Purity(%) at day 14 (25° C.) (pH 2.0, day 14, 25° C.): 82.7% | Purity(%) at day 14 (40° C.) (pH 2.0, day 14, 40° C.): 0% | Purity (%) at day 14 (60° C.) (pH 2.0, day 14, 60° C.): 0% | Purity(%) at day 0 (pH 3.0, day 0): 99.1% | Purity(%) at day 14 (5° C.) (pH 3.0, day 14, 5° C.): 97.5% | Purity(%) at day 14 (25° C.) (pH 3.0, day 14, 25° C.): 87.7% | Purity(%) at day 14 (40° C.) (pH 3.0, day 14, 40° C.): 2.3% | Purity (%) at day 14 (60° C.) (pH 3.0, day 14, 60° C.): 0% | Purity(%) at day 0 (pH 3.7, day 0): 99.1% | Purity(%) at day 14 (5° C.) (pH 3.7, day 14, 5° C.): 98.2% | Purity(%) at day 14 (25° C.) (pH 3.7, day 14, 25° C.): 95.5% | Purity(%) at day 14 (40° C.) (pH 3.7, day 14, 40° C.): 14.1% | Purity (%) at day 14 (60° C.) (pH 3.7, day 14, 60° C.): 0% | Purity(%) at day 0 (pH 4.0, day 0): 99.1% | Purity(%) at day 14 (5° C.) (pH 4.0, day 14, 5° C.): 98.4% | Purity(%) at day 14 (25° C.) (pH 4.0, day 14, 25° C.): 95.9% | Purity(%) at day 14 (40° C.) (pH 4.0, day 14, 40° C.): 14.3% | Purity (%) at day 14 (60° C.) (pH 4.0, day 14, 60° C.): 0% | Purity(%) at day 0 (pH 4.3, day 0): 99.1% | Purity(%) at day 14 (5° C.) (pH 4.3, day 14, 5° C.): 98.4% | Purity(%) at day 14 (25° C.) (pH 4.3, day 14, 25° C.): 95.8% | Purity(%) at day 14 (40° C.) (pH 4.3, day 14, 40° C.): 12.8% | Purity (%) at day 14 (60° C.) (pH 4.3, day 14, 60° C.): 0% | Purity(%) at day 0 (pH 4.6, day 0): 99.1% | Purity(%) at day 14 (5° C.) (pH 4.6, day 14, 5° C.): 98.3% | Purity(%) at day 14 (25° C.) (pH 4.6, day 14, 25° C.): 95.6% | Purity(%) at day 14 (40° C.) (pH 4.6, day 14, 40° C.): 3.4% | Purity (%) at day 14 (60° C.) (pH 4.6, day 14, 60° C.): 0% | Purity(%) at day 0 (pH 5.0, day 0): 99.1% | Purity(%) at day 14 (5° C.) (pH 5.0, day 14, 5° C.): 97.0% | Purity(%) at day 14 (25° C.) (pH 5.0, day 14, 25° C.): 91.0% | Purity(%) at day 14 (40° C.) (pH 5.0, day 14, 40° C.): 0.9% | Purity (%) at day 14 (60° C.) (pH 5.0, day 14, 60° C.): 0% | Purity(%) at day 0 (pH 6.0, day 0): 99.1% | Purity(%) at day 14 (5° C.) (pH 6.0, day 14, 5° C.): 91.6% | Purity(%) at day 14 (25° C.) (pH 6.0, day 14, 25° C.): 84.1% | Purity(%) at day 14 (40° C.) (pH 6.0, day 14, 40° C.): 0% | Purity (%) at day 14 (60° C.) (pH 6.0, day 14, 60° C.): 0% | Purity(%) at day 0 (pH 7.0, day 0): 99.1% | Purity(%) at day 14 (5° C.) (pH 7.0, day 14, 5° C.): 87.3% | Purity(%) at day 14 (25° C.) (pH 7.0, day 14, 25° C.): 60.3% | Purity(%) at day 14 (40° C.) (pH 7.0, day 14, 40° C.): 0% | Purity (%) at day 14 (60° C.) (pH 7.0, day 14, 60° C.): 0% | Purity(%) at day 0 (pH 8.0, day 0): 99.1% | Purity(%) at day 14 (5° C.) (pH 8.0, day 14, 5° C.): 57.3% | Purity(%) at day 14 (25° C.) (pH 8.0, day 14, 25° C.): 21.2% | Purity(%) at day 14 (40° C.) (pH 8.0, day 14, 40° C.): 0% | Purity (%) at day 14 (60° C.) (pH 8.0, day 14, 60° C.): 0%
